Source: patent US20110118397A1, “RUBBER COMPOSITION” (BRIDGESTONE CORPORATION, priority 2008, published 2011)

Tests used:
[1] = octanol/water partition coefficient (log P) by high-performance liquid chromatography, JIS Z 7260-117 (2006)
From the text: (§1) In the present invention (including examples and the like described later), the octanol/water partition coefficient (log P) described above can be measured by a high-performance liquid chromatography according to JIS Z 7260-117 (2006), and it is defined by the following equation:
(§2) log P=log(^┌Co┘/^┌Cw┘) • Co: concentration of an examined substance in a 1-octanol layer • Cw: concentration of an examined substance in an aqueous layer
(§3) The octanol/water partition coefficients (log P) of the vulcanization accelerators obtained in the following respective production examples were measured by a high-performance liquid chromatography according to JIS Z 7260-117 (2006). A high-performance liquid chromatography manufactured by Shimadzu Corporation was used.

From the text for physchem: as §1, §2, §3

SMILES | chromatographic logP [1] | melting point | chromatographic logP (physchem)
CN(Sc1nc2ccccc2s1)C(C)(C)C [N-methyl-N-t-butylbenzothiazole-2-sulfenamide] | 4.5 | 56 to 58 °C | –
CCCN(Sc1nc2ccccc2s1)C(C)(C)C [N-n-propyl-N-t-butylbenzothiazole-2-sulfenamide] | 5.3 | – | –
CCN(Sc1nc2ccccc2s1)C(C)(C)C [N-ethyl-N-t-butylbenzothiazole-2-sulfenamide] | 4.9 | 60 to 61 °C | –
CCCCN(Sc1nc2ccccc2s1)C(C)(C)C [N-n-butyl-N-t-butylbenzothiazole-2-sulfenamide] | 5.8 | 55 to 56 °C | –
CC(C)N(Sc1nc2ccccc2s1)C(C)(C)C [N-i-propyl-N-t-butylbenzothiazole-2-sulfenamide] | – | – | 5.1
